Laboratory results published in patent US5798382A, “2,3-dihydrobenzofuran derivatives, method for producing the same, and use thereof” (Asahi Kasei Kogyo Kabushiki Kaisha, priority 1994, dated 1998).

Experiments:
adrenaline α1 receptor = assay: Affinity for adrenaline α1 receptor: inhibition of 3H-Prazosin binding to rat cerebral cortex membrane fraction; set-up: species or system rat (male SD strain); settings: for Ki: 3H-Prazosin, rat cerebral cortex membrane, 25° C. 30 min, tested as hydrochloride salt
Procedure: A male SD strain rat (7-week old; Charles River) was decapitated, and brain was taken out therefrom quickly. Cerebral cortex of the rat was separated and extracted at […] under ice cooling. The extracted cerebral cortex was frozen at -80° C. for 24 hours or longer. This frozen system was gradually thawed under ice cooling and then, 50 mM Tris-HCl buffer (pH 7.4) was added to the brain under ice cooling to obtain a suspension. The resultant suspension was homogenized, and then subjected to centrifugation at 48,000 g for 15 minutes, to thereby obtain a precipitate. The precipitate thus obtained was washed twice and resuspended in the same Tris-HCl buffer as used above. […] The total volume amount of the reaction mixture was 1 ml. The resultant reaction mixture was subjected to suction filtration using a Whatman GF/C filter, and the filter was washed three times in 50 mM Tris-HCl buffer (pH 7.4, 4 ml), transferred to a vial and then, the radioactivity of Prazosin absorbed on the filter was determined using a liquid scintillation counter. […] On the other hand, substantially the same procedure as mentioned above was repeated, except that 100 nM (final concentration) Prazosin was added to the ^3 H-Prazosin and ascorbic acid. The radioactivity of ^3 H-Prazosin adsorbed on the filter was determined in the same manner as mentioned above. […] Further, substantially the same procedure as mentioned above was repeated, except that, instead of Prazosin, a test compound was used in a predetermined concentration. The radioactivity of ^3 H-Prazosin adsorbed on the filter was determined in the same manner as mentioned above. […] The binding inhibition ratios were plotted, taking the logarithmic value of the concentration of the test compound as the abscissa value, and the binding inhibition ratio as the ordinate value. Then, a curve was drawn by the non-linear least square method.

Suncus murinus = assay: Activities against emesis: acceleration-stimulus induced emesis in suncus; type: in vivo; settings: stimulus (4 cm, 1 Hz) 30 minutes after, 4 suncus, hydrochloride salt, physiological saline 0.55
Description: The activities of individual compounds against emesis were examined using Suncus murinus. Suncus murinus is a small animal belonging to the Soricidae family. It has been known that suncus is likely to suffer from motion sickness and is susceptible to occurrence of emesis [see "Seitai-no-kagaku (Science of living body)", 42, 538 (1990)]. Suncus is likely to show symptoms like the symptoms of human motion sickness under the stimulus of simple acceleration, finally leading to the occurrence of emesis. It has been known that a drug, such as cisplatin, has an emesis-inducing activity.
In this test, test compounds were individually administered intraperitoneally to suncus. 30 minutes after the administration, acceleration-stimulus (amplitude: 4 cm; frequency; 1 Hz) was given to the suncus, and the suncus thus treated was observed as to whether emesis occurred or not.
Each of the compounds (1) used in the above tests was tested in the form of a hydrochloride salt thereof, and represented in Table 3 by the compound number used in Examples described below.

SMILES	Ki (adrenaline α1 receptor) [nM]	Time for occurrence of emesis (Suncus murinus; 1 mg/kg intraperitoneally) [min. sec]	other results
O=C(NCCCCNCC1Cc2ccccc2O1)c1ccc2ccccc2c1 (centres unmarked) [Compound 102B, 2-{N-[4-(2-naphthoylamino)butyl]}aminomethyl-2,3-dihydrobenzo[b]furan]	140	–	–
O=S(=O)(NCCCCNCC1Cc2ccccc2O1)c1ccc2ccccc2c1 (centres unmarked) [Compound 115B, 2-{N-[4-(2-naphthylsulfonylamino)butyl]}aminomethyl-2,3-dihydrobenzo[b]furan]	–	5.56	–
O=C(NCCCCNCC1Cc2ccccc2O1)c1cccc2ccccc12 (centres unmarked) [Compound 101B, 2-{N-[4-(1-naphthoylamino)butyl]}aminomethyl-2,3-dihydrobenzo[b]furan]	150	–	–
O=C(NCCCNCC1Cc2ccccc2O1)c1cccc2ccccc12 (centres unmarked) [Compound 113B, 2-{N-[3-(1-naphthoylamino)propyl]}aminomethyl-2,3-dihydrobenzo[b]furan]	95	7.44	–
COc1cc2nc(N3CCN(C(=O)c4ccco4)CC3)nc(N)c2cc1OC [^3 H-Prazosin, reference compound]	–	–	Kd (adrenaline α1 receptor; radioactive ligand, used in Ki calculation): 0.133 nM
CCN(CCCCNC(=O)c1cccs1)CC1Cc2ccccc2O1 (single isomer, unassigned; (-)) [Compound 117A, (-)-2-{N-ethyl-N-[4-(2-thienylcarbonylamino)butyl]}aminomethyl-2,3-dihydrobenzo[b]furan]	580	–	–
CN(CCCCNC(=O)c1cccs1)CC1Cc2ccccc2O1 (single isomer, unassigned; (-)) [Compound 116A, (-)-2-{N-methyl-N-[4-(2-thienylcarbonylamino)butyl]}aminomethyl-2,3-dihydrobenzo[b]furan]	530	–	–
O=C(NCCCCNCC1Cc2ccccc2O1)c1cccs1 (centres unmarked) [Compound 106B, 2-{N-[4-(2-thienylcarbonylamino)butyl]}aminomethyl-2,3-dihydrobenzo[b]furan]	240	8.50	–
O=S(=O)(NCCCCNCC1Cc2ccccc2O1)c1cccc2ccccc12 (centres unmarked) [Compound 114B, 2-{N-[4-(1-naphthylsulfonylamino)butyl]}aminomethyl-2,3-dihydrobenzo[b]furan]	96	3.50	–
O=C(NCCNCC1Cc2ccccc2O1)c1cccc2ccccc12 (centres unmarked) [Compound 112B, 2-{N-[2-(1-naphthoylamino)ethyl]}aminomethyl-2,3-dihydrobenzo[b]furan]	320	–	Time for occurrence of emesis (Suncus murinus; 3 mg/kg intraperitoneally): 6.03 min. sec
O=C(NCCCCNCC1Cc2ccccc2O1)c1cccs1 (single isomer, unassigned; (-)) [Compound 111A, (-)-2-{N-[4-(2-thienylcarbonylamino)butyl]}aminomethyl-2,3-dihydrobenzo-[b]furan]	160	–	–
O=C(NCCCCNCC1Cc2ccccc2O1)c1ccco1 (centres unmarked) [Compound 108B, 2-{N-[4-(2-furylcarbonylamino)butyl]}aminomethyl-2,3-dihydrobenzo[b]furan]	–	4.56	–
O=C(NCCCCNCC1Cc2ccccc2O1)c1ccsc1 (centres unmarked) [Compound 107B, 2-{N-[4-(3-thienylcarbonylamino)butyl]}aminomethyl-2,3-dihydrobenzo[b]furan]	230	–	–
